Test results from patent US4617269A, “Process for the preparation of fructosyl disaccharides” (priority 1983, dated 1986).
Like-named read-outs stand apart in the source and are kept apart here.

Columns and labels:
[1] = Sweetness relative to sucrose
[2] = system: Dedonder's levan sucrase from B.subtilis BS5 (a clone from B.subtilis var. nigra); settings: cited from earlier work

For `C[C@H]1O[C@H](O[C@]2(CCl)O[C@H](CCl)[C@@H](O)[C@@H]2O)[C@H](O)[C@@H](O)[C@H]1Cl` [4,1',6'-trichloro-4,6,1',6'-tetradeoxygalactosucrose], which “sweetness, times as sweet as sucrose” value ([1]; 8% solution) is on record?
The value was 400 times as sweet as sucrose.

For `O[C@@H]1[C@@H](O)[C@@H](O[C@]2(CCl)O[C@H](CCl)[C@@H](O)[C@@H]2O)OC[C@@H]1Cl` [Example 8], which “sweetness, times as sweet as sucrose” value ([1]; in a 2% solution) is on record?
The value was 25 times as sweet as sucrose.

Which sweetness ([1]; only a trace of sweetness) does the source give for `OC[C@H]1O[C@H](O[C@]2(CO)O[C@H](CO)[C@@H](O)[C@@H]2O)[C@H](O)[C@@H](O)[C@H]1O` [Galactosucrose, β-D-fructofuranosyl (2→1)-D-galactopyranoside] here?
The sweetness was 10-15 % of sucrose.

With `OC[C@H]1O[C@@](CO)(O[C@H]2O[C@H](CO)[C@@H](O)[C@H](O)[C@H]2O)[C@@H](O)[C@@H]1O` [sucrose, β-D-fructofuranosyl α-D-glucopyranoside] as the compound, how does the Km ([2]; Dedonder (loc.cit.) BS5 strain enzyme, read-out: Km (sucrose), quoted) read?
The Km was about 20 mM.

What about the Km ([2]; reported for Dedonder's levan sucrase, read-out: Km for sucrose) of the same compound?
The Km was 20 mM.
